According to ChEMBL document CHEMBL1159318, “Anti-inflammatory and anti-tumor-promoting effects of cucurbitane glycosides from the roots of Bryonia dioica” (J Nat Prod, 2002):

Key:
Raji [1] = assay: Inhibition of TPA-induced EBV-early antigen activation in human Raji cells at 10 molar ratio after 48 hrs relative to TPA; values are per cent of control; settings: human gammaherpesvirus 4
Raji [2] = assay: Inhibition of TPA-induced EBV-early antigen activation in human Raji cells at 500 molar ratio after 48 hrs relative to TPA; values are per cent of control; settings: human gammaherpesvirus 4
Raji [3] = assay: Inhibition of TPA-induced EBV-early antigen activation in human Raji cells at 100 molar ratio after 48 hrs relative to TPA; values are per cent of control; settings: human gammaherpesvirus 4
Raji [4] = assay: Inhibition of TPA-induced EBV-early antigen activation in human Raji cells at 1000 molar ratio after 48 hrs relative to TPA; values are per cent of control; settings: human gammaherpesvirus 4
[5] = Cytotoxicity against human Raji cells assessed as cell viability at 1000 molar ratio after 48 hrs by trypan blue assay; assay type: cell-based; settings: read-out: Activity
Mus musculus [6] = assay: Antiinflammatory activity against ICR mouse assessed as inhibition of TPA-induced ear edema compound administered topically preincubated 30 mins before TPA challenge; assay type: functional
Mus musculus [7] = assay: Antiinflammatory activity against ICR mouse assessed as inhibition ratio of TPA-induced ear edema at 1 mg/ear, topically preincubated 30 mins before TPA challenge relative to TPA; assay type: functional; design: scale not given: the % may be the effect or the level left

| SMILES | level, % of control (Raji [1]) | level, % of control (Raji [2]) | level, % of control (Raji [3]) | level, % of control (Raji [4]) | viability at 48 h, 1000 molar ratio [5] | ID50 (Mus musculus [6]) | Activity (Mus musculus [7]) |
| --- | --- | --- | --- | --- | --- | --- | --- |
| CC1=C(/C=C/C(C)=C/C=C/C(C)=C/C=C/C=C(C)/C=C/C=C(C)/C=C/C2=C(C)CCCC2(C)C)C(C)(C)CCC1 | 100% | 34.2% | 82.1% | 8.6% | – | – | – |
| C[C@H](CC[C@@H](O)C(C)(C)O)[C@H]1CC[C@@]2(C)[C@@H]3C[C@@H]4O[C@]45[C@@H](CC[C@H](O[C@@H]4O[C@H](CO)[C@@H](O)[C@H](O)[C@H]4O)C5(C)C)[C@]3(C)C(=O)C[C@]12C [5ALPHA,6ALPHA-EPOXYCABENOSIDE D] | 95.3% | 28.6% | 70% | 0% | 60% | – | – |
| CC(C)(O)CCC(=O)[C@@](C)(O)[C@H]1[C@H](O)C[C@@]2(C)[C@@H]3CC=C4[C@@H](C=C(O[C@@H]5O[C@H](CO)[C@@H](O)[C@H](O)[C@H]5O)C(=O)C4(C)C)[C@]3(C)C(=O)C[C@]12C [BRYOAMARIDE] | 96% | 28.7% | 71.7% | 0% | 60% | 0.7 mg | 51% |
| C[C@H](CC[C@@H](O)C(C)(C)O)[C@H]1CC[C@@]2(C)[C@@H]3CC=C4[C@@H](CC[C@H](O)C4(C)C)[C@]3(C)C(=O)C[C@]12C [BRYODULCOSIGENIN] | 88.9% | 23.6% | 69.3% | 0% | 70% | – | – |
| C[C@H](CC[C@@H](O)C(C)(C)O[C@@H]1O[C@H](CO)[C@@H](O)[C@H](O)[C@H]1O)[C@H]1CC[C@@]2(C)[C@@H]3CC=C4[C@@H](CC[C@H](O)C4(C)C)[C@]3(C)C(=O)C[C@]12C [BRYONIOSIDE A] | 100% | 30.4% | 75.1% | 3.4% | 60% | – | – |
| C[C@H](CC[C@@H](O)C(C)(C)O)[C@H]1CC[C@@]2(C)[C@@H]3CC=C4[C@@H](CC[C@H](O[C@@H]5O[C@H](CO)[C@@H](O)[C@H](O)[C@H]5O[C@@H]5O[C@@H](C)[C@H](O)[C@@H](O)[C@H]5O)C4(C)C)[C@]3(C)C(=O)C[C@]12C [BRYONIOSIDE B] | 97.4% | 29.9% | 72.7% | 0% | 60% | 0.2 mg | 94% |
| CC(=O)O[C@@H]1[C@@H](O)[C@@H](O)[C@H](O[C@H]2[C@H](O[C@H]3CC[C@@H]4C(=CC[C@@H]5[C@@]4(C)C(=O)C[C@]4(C)[C@@H]([C@H](C)CC[C@@H](O)C(C)(C)O)CC[C@@]54C)C3(C)C)O[C@H](CO)[C@@H](O)[C@@H]2O)O[C@H]1C [BRYONIOSIDE C] | 100% | 30.2% | 73.5% | 0% | 60% | 0.3 mg | 83% |
| C[C@H](C(O)CC(O)C(C)(C)O[C@@H]1O[C@H](CO)[C@@H](O)[C@H](O)[C@H]1O)[C@H]1CC[C@@]2(C)[C@@H]3CC=C4[C@@H](CC[C@H](O)C4(C)C)[C@]3(C)C(=O)C[C@]12C (stereo not given in full) [BRYONIOSIDE E] | 100% | 37% | 77.2% | 11.6% | 60% | 0.2 mg | 94% |
| C[C@H](CCC(=O)C(C)(C)O)[C@H]1CC[C@@]2(C)[C@@H]3CC=C4[C@@H](CC[C@H](O[C@@H]5O[C@H](CO)[C@@H](O)[C@H](O)[C@H]5O)C4(C)C)[C@]3(C)C(=O)C[C@]12C [BRYONIOSIDE F] | 97.6% | 29.2% | 71.4% | 0% | 60% | – | – |
| C[C@H](CCC(=O)C(C)(C)O)[C@H]1CC[C@@]2(C)[C@@H]3CC=C4[C@@H](CC[C@H](O[C@@H]5O[C@H](CO)[C@@H](O)[C@H](O)[C@H]5O[C@@H]5O[C@@H](C)[C@H](O)[C@@H](O)[C@H]5O)C4(C)C)[C@]3(C)C(=O)C[C@]12C [BRYONIOSIDE G] | 100% | 30.6% | 74.2% | 0% | 60% | 0.2 mg | 90% |
| C[C@H](CCC(=O)C(C)(C)O)[C@H]1CC[C@@]2(C)[C@@H]3CC=C4[C@@H](CC[C@H](O)C4(C)C)[C@]3(C)C(=O)C[C@]12C [BRYOSIGENIN] | 92.7% | 28.9% | 73.5% | 0% | 70% | – | – |
| C[C@H](CC[C@@H](O)C(C)(C)O)[C@H]1CC[C@@]2(C)[C@@H]3CC=C4[C@@H](CC[C@H](O[C@@H]5O[C@H](CO)[C@@H](O)[C@H](O)[C@H]5O)C4(C)C)[C@]3(C)C(=O)C[C@]12C [CABENOSIDE D] | 94.1% | 26.1% | 69.3% | 0% | 60% | 0.6 mg | 66% |
| COc1ccc2c(c1)c(CC(=O)O)c(C)n2C(=O)c1ccc(Cl)cc1 [INDOMETHACIN] | – | – | – | – | – | 0.3 mg | 96% |
| O=c1c(O)c(-c2ccc(O)c(O)c2)oc2cc(O)cc(O)c12 [QUERCETIN] | – | – | – | – | – | 1.6 mg | 40% |
